Results: patent US5468756A, “Imidazonaphthyridine derivatives” (Kyowa Hakko Kogyo Co., Ltd., priority 1990, dated 1995)
Structures can show the parent of a compound that is named as a salt.

Legend:
ddY strain male mice = experiment: Acute toxicity (Minimum Lethal Dose); type: in vivo
Method: The test compound was orally and intraperitoneally administered to ddY strain male mice weighing 20 to 25 g. MLD (Minimum Lethal Dose) was determined by observing the mortality for […] after the administration.

[1] = test system: passive Schultz-Dale reaction; experiment: Effect on passive Schultz-Dale reaction (broncho-dilative activity), sensitized tracheal strips contracted by antigen; set-up: species or system male Hartley guinea pigs; conditions: guinea pig tracheal zig-zag strips, 37° C., antigen egg white albumin 1 μg/ml; read-out: Passive Schultz-Dale reaction IC50 (concentration of 50% relaxation rate)
Method: d) Effect on passive Schultz-Dale reaction (broncho-dilative activity)
Male Hartley guinea pigs weighing 350 to 500 g were passively sensitized by intraperitoneal injection of rabbit anti-OA serum prepared in advance by the method of Koda et al. [Folia Pharmacol., Japon 66, 237, (1970)]. After 24 hours, the guinea pigs were stunned and exsanguinated, and then tracheae were removed. The zig-zag strips of the tracheae were prepared by the method of Emmerson and Mackay [J. Pharm. Pharmacol., 31, 798, (1979)]. The strips were suspended in Krebs-Henseleit solution at 37° C. under aeration of a mixed gas of 95% oxygen and 5% carbon dioxide, and equilibrated for one hour. Then, antigen (egg white albumin) was introduced in the solution (final concentration; 1 μg/ml), and the contraction was measured by isotonictransducer (TD-112s, made by Nihon Kohden K.K., Japan) and recorded on a recorder (Type 3066, made by Yokogawa-Hokushin Denki, K.K. Japan). After the contraction curves reached a plateau, the test compounds were successively added in order to get cumulative concentration-relaxation curves. The concentration of 50% relaxation rate (IC50) was calculated from the regression line, which was obtained from the cumulative concentration-relaxation curves.

[2] = test system: platelet activating factor (PAF)-induced mortality; experiment: Inhibition effect on platelet activating factor (PAF)-induced mortality; type: in vivo, male dd mice; conditions: Mus musculus, po, PAF 40 μg/kg i.v., 3 h, n = 10, control group survival 0-20%, read-out: Survival rate of test compound-administered group
Method: e) Inhibition effect on platelet activating factor (PAF)-induced mortality
The experiment was carried out by a minor modification of a known method [Br. J. Pharmacol., 79, 595 (1983)]. Groups each consisting of 10 male dd mice (weighing 28 to 32 g) were used, and 50 or 100 mg/kg of the test compound or a saline (control) was orally administered. One hour after the administration of test compound, 40 μg/kg of PAF (manufactured by Avanti Polar Lipids Co., Ltd.) was intravenously administered. Three hours after PAF injection, the mortality of the animals was observed.

[3] = test system: carrageenin-induced paw edema; experiment: Effect on carrageenin-induced paw edema; type: in vivo, male Wistar rats; conditions: Rattus norvegicus; p.o., 3 hours after carrageenin; read-out: Suppression rate for paw swelling, carrageenin-induced edema
Method: a) Effect on carrageenin-induced paw edema
Male Wistar rats weighing 150 to 160 g (n=3-5) were used in the experiment. After the right hind paw volume was measured with the plethysmograph (TK-101; Unicom Co., Ltd.), the test compound (25, 50 or 100 mg/kg) was orally administered. After one hour, 0.1 ml of 1% carrageenin (λ-carrageenin; PICNIN-A®, Zushi Kagaku Co., Ltd.) was subcutaneously injected into the right hind paw footpad. Three hours after the injection of carrageenin, the right hind paw volume was measured and the swelling rate was determined by the following equation 1. [formula] Vt: the right hind paw volume measured 3 hours after the injection of carrageenin
Vo: the right hind paw volume measured prior to the injection of carrageenin
The suppression rate was calculated by the following equation 2. [formula] Swt: the swelling rate of the group administered with the test compound Swc: the swelling rate of the control group administered with physiological saline solution

## Cn1cnc2c(=O)n(-c3ccccc3)c3ncccc3c21 [Compound 2, 1-Methyl-5-phenyl-1H-imidazo[4,5-c][1,8]naphthyridin-4(5H)-one]
ddY strain male mice
  MLD (Minimum Lethal Dose) i.p.: > 100 mg/kg
  MLD (Minimum Lethal Dose) p.o.: > 300 mg/kg

## O=c1c2[nH]cnc2c2cccnc2n1-c1ccccc1 [Compound 3, 5-Phenyl-3H-imidazo[4,5-c][1,8]naphthyridin-4(5H)-one]
[1]
  IC50: 0.77 µM
[2]
  responders at 100 mg/kg: 70%
ddY strain male mice
  MLD (Minimum Lethal Dose) i.p.: > 100 mg/kg
  MLD (Minimum Lethal Dose) p.o.: > 300 mg/kg

## Cn1cnc2c3cccnc3n(-c3ccccc3)c(=O)c21 [Compound 4, 3-Methyl-5-phenyl-3H-imidazo[4,5-c][1,8]naphthyridin-4(5H)-one]
[1]
  IC50: 0.24 µM
ddY strain male mice
  MLD (Minimum Lethal Dose) i.p.: > 50 mg/kg
  MLD (Minimum Lethal Dose) p.o.: > 50 mg/kg

## CCn1cnc2c(=O)n(-c3ccccc3)c3ncccc3c21 [Compound 5, 1-Ethyl-5-phenyl-1H-imidazo[4,5-c][1,8]naphthyridin-4(5H)-one]
[1]
  IC50: > 10 µM
[2]
  responders at 100 mg/kg: 80%
[3]
  inhibition in vivo at 100 mg/kg: 20.6%

## CC(C)n1cnc2c(=O)n(-c3ccccc3)c3ncccc3c21 [Compound 6, 1-Isopropyl-5-phenyl-1H-imidazo[4,5-c][1,8]naphthyridin-4(5H)-one]
[1]
  IC50: > 10 µM
[2]
  responders at 100 mg/kg: 70%
[3]
  inhibition in vivo at 100 mg/kg: 22%

## O=c1c2ncn(Cc3ccccc3)c2c2cccnc2n1-c1ccccc1 [Compound 7, 1-Benzyl-5-phenyl-1H-imidazo[4,5-c][1,8]naphthyridin-4(5H)-one]
[1]
  IC50: > 10 µM
[2]
  responders at 100 mg/kg: 90%

## O=c1c2[nH]c(-c3ccccc3)nc2c2cccnc2n1-c1ccccc1 [Compound 19, 2,5-Diphenyl-3H-imidazo[4,5-c][1,8]naphthyridin-4(5H)-one]
[1]
  IC50: > 10 µM
[2]
  responders at 100 mg/kg: 60%
[3]
  inhibition in vivo at 100 mg/kg: 1.7%

## O=c1c2[nH]c(S)nc2c2cccnc2n1-c1ccccc1 [Compound 20, 2-Mercapto-5-phenyl-3H-imidazo[4,5-c][1,8]naphthyridin-4(5H)-one]
[1]
  IC50: > 10 µM
[2]
  responders at 100 mg/kg: 30%
[3]
  inhibition in vivo at 100 mg/kg: 6.8%

## CCOC(=O)Cn1cnc2c3cccnc3n(-c3ccccc3)c(=O)c21 [Compound 32, 3-Ethoxycarbonylmethyl-5-phenyl-3H-imidazo[4,5-c][1,8]naphthyridin-4(5H)-one]
[1]
  IC50: 0.68 µM
[2]
  responders at 100 mg/kg: 0%
ddY strain male mice
  MLD (Minimum Lethal Dose) i.p.: > 100 mg/kg
  MLD (Minimum Lethal Dose) p.o.: > 300 mg/kg

## CCCC(CCC)n1cnc2c3cccnc3n(-c3ccccc3)c(=O)c21 [Compound 35, 3-(1-Propylbutyl)-5-phenyl-3H-imidazo[4,5-c][1,8]naphthyridin-4(5H)-one]
[2]
  responders at 100 mg/kg: 70%
ddY strain male mice
  MLD (Minimum Lethal Dose) i.p.: > 100 mg/kg
  MLD (Minimum Lethal Dose) p.o.: > 300 mg/kg

## O=c1c2c(ncn2CC=Cc2ccccc2)c2cccnc2n1-c1ccccc1 [Compound 36, 3-Cinnamyl-5-phenyl-3H-imidazo[4,5-c][1,8]naphthyridin-4(5H)-one]
[2]
  responders at 100 mg/kg: 20%
ddY strain male mice
  MLD (Minimum Lethal Dose) i.p.: > 100 mg/kg
  MLD (Minimum Lethal Dose) p.o.: > 300 mg/kg

## O=c1c2c(ncn2C(c2ccccc2)c2ccccc2)c2cccnc2n1-c1ccccc1 [Compound 38, 3-(3-Diphenylmethyl)-5-phenyl-3H-imidazo-[4,5-c][1,8]naphthyridin-4(5H)-one]
[2]
  responders at 100 mg/kg: 30%

## Cc1ccc(C)c(Cn2cnc3c4cccnc4n(-c4ccccc4)c(=O)c32)c1 [Compound 39, 3-(2,5-Dimethylphenyl)methyl-5-phenyl-3H-imidazo[4,5-c][1,8]naphthyridin-4(5H)-one]
[2]
  responders at 100 mg/kg: 0%

## O=c1c2c(ncn2Cc2ccccc2Cl)c2cccnc2n1-c1ccccc1 [Compound 48, 3-(2-Chlorophenyl)methyl-5-phenyl-3H-imidazo[4,5-c][1,8]naphthyridin-4(5H)-one]
[1]
  IC50: 4.9 µM
[2]
  responders at 100 mg/kg: 10%

## O=c1c2c(ncn2Cc2cccc(Br)c2)c2cccnc2n1-c1ccccc1 [Compound 49, 3-(3-Bromophenyl)methyl-5-phenyl-3H-imidazo[4,5-c][1,8]naphthyridin-4(5H)-one]
[2]
  responders at 100 mg/kg: 0%

## COC(=O)c1ccc(Cn2cnc3c4cccnc4n(-c4ccccc4)c(=O)c32)cc1 [Compound 50, 3-(4-Methoxycarbonylphenyl)methyl-5-phenyl-3H-imidazo[4,5-c][1,8]naphthyridin-4(5H)-one]
[2]
  responders at 100 mg/kg: 0%

## O=c1c2c(ncn2CCCO)c2cccnc2n1-c1ccccc1 [Compound 51, 3-(3-Hydroxypropyl)-5-phenyl-3H-imidazo[4,5-c][1,8]naphthyridin-4(5H)-one]
[2]
  responders at 100 mg/kg: 80%

## CC(O)Cn1cnc2c3cccnc3n(-c3ccccc3)c(=O)c21 (centres unmarked) [Compound 52, 3-(2-Hydroxypropyl)-5-phenyl-3H-imidazo[4,5-c][1,8]naphthyridin-4(5H)-one]
[2]
  responders at 100 mg/kg: 100%

## O=c1c2c(ncn2Cc2ccco2)c2cccnc2n1-c1ccccc1 [Compound 53, 3-Furfuryl-5-phenyl-3H-imidazo[4,5-c][1,8]naphthyridin-4(5H)-one]
[2]
  responders at 100 mg/kg: 90%

## O=c1c2c(ncn2Cc2cccnc2)c2cccnc2n1-c1ccccc1 [Compound 54, 5-Phenyl-3-(3-pyridyl)methyl-3H-imidazo[4,5-c][1,8]naphthyridin-4(5H)-one]
[2]
  responders at 100 mg/kg: 90%

## COc1ccc(-n2c(=O)c3c(ncn3Cc3ccccc3)c3cccnc32)cc1 [Compound 55, 5-(4-Methoxyphenyl)-3-benzyl-3H-imidazo[4,5-c][1,8]naphthyridin-4(5H)-one]
[2]
  responders at 100 mg/kg: 0%

## COc1cccc(-n2c(=O)c3c(ncn3Cc3ccccc3)c3cccnc32)c1 [Compound 56, 5-(3-Methoxyphenyl)-3-benzyl-3H-imidazo[4,5-c][1,8]naphthyridin-4(5H)-one]
[2]
  responders at 100 mg/kg: 40%

## Cc1ccc(-n2c(=O)c3c(ncn3Cc3ccccc3)c3cccnc32)cc1 [Compound 57, 5-(4-Methylphenyl)-3-benzyl-3H-imidazo[4,5-c][1,8]naphthyridin-4(5H)-one]
[2]
  responders at 100 mg/kg: 0%

## Cc1nc2c3cccnc3n(-c3ccccc3)c(=O)c2n1Cc1ccccc1 [Compound 60, 2-Methyl-5-phenyl-3-benzyl-3H-imidazo[4,5-c][1,8]-naphthyridin-4(5H)-one]
[2]
  responders at 100 mg/kg: 20%

## O=c1c2c(nc(-c3ccccc3)n2Cc2ccccc2)c2cccnc2n1-c1ccccc1 [Compound 61, 2,5-Diphenyl-3-benzyl-3H-imidazo[4,5-c][1,8]naphthyridin-4(5H)-one]
[2]
  responders at 100 mg/kg: 10%

## COc1ccc(-n2c(=O)c3c(ncn3CC(C)C)c3cccnc32)cc1 [Compound 62, 3-Isobutyl-5-(4-methoxyphenyl)-3H-imidazo[4,5-c][1,8]naphthyridin-4(5H)-one]
[2]
  responders at 100 mg/kg: 90%

## Cc1ccc(-n2c(=O)c3c(ncn3CC(C)C)c3cccnc32)cc1 [Compound 64, 3-Isobutyl-5-(4-methylphenyl)-3H-imidazo[4,5-c][1,8]naphthyridin-4(5H)-one]
[2]
  responders at 100 mg/kg: 60%

## O=c1c2c(ncn2CCCN2CCOCC2)c2cccnc2n1-c1ccccc1 [Compound 66 Sa, 3-(3-Morpholino)propyl-5-phenyl-3H-imidazo[4,5-c][1,8]naphthyridin-4(5H)-one hydrochloride]
[2]
  responders at 100 mg/kg: 70%
ddY strain male mice
  MLD (Minimum Lethal Dose) i.p.: > 100 mg/kg
  MLD (Minimum Lethal Dose) p.o.: > 300 mg/kg

## CCN(CC)CCCn1cnc2c3cccnc3n(-c3ccccc3)c(=O)c21 [Compound 67 Sa, 3-(3-Diethylamino)propyl-5-phenyl-3H-imidazo[4,5-c][1,8]naphthyridin-4(5H)-one hydrochloride]
[2]
  responders at 100 mg/kg: 30%
ddY strain male mice
  MLD (Minimum Lethal Dose) i.p.: > 100 mg/kg
  MLD (Minimum Lethal Dose) p.o.: > 300 mg/kg
